System: Plasmodium berghei
Assay: Luciferase/luciferin-expressing antifolate-resistant parasites were used to infect a culture of HepG2 cells that were pre-incubated with compounds. Infected hepatocytes emit light due to the luciferase reaction. Assay results are presented as the percent inhibition of light emission compared to control. […]
Type: functional
Conditions: sporozoite; for IC90: read-out: LUCIFERASE INFECTION ASSAY - IC90
[1] = read-out: LUCIFERASE INFECTION ASSAY - IC50

Structure (SMILES)	IC90	IC50 [1]	further results
O=C(NCCO)c1cccc(-c2ccc3ncc(-c4cccc(Cl)c4)n3n2)c1	3.56 µM		IC50 (HEPG2TOX_HILL_SLOPE 1.24, HEPG2TOX_R_SQUARED 0.781, PBLUC_HILL_SLOPE 15.2, PBLUC_R_SQUARED 0.219, read-out: LUCIFERASE INFECTION ASSAY - IC50): 3.08 µM
CN1/C(=C\C(=O)COC(=O)/C=C/c2cn(-c3ccccc3)nc2-c2ccc(F)cc2)C(C)(C)c2ccccc21	> 10 µM		IC50 (FFLUC_HILL_SLOPE 1.67, FFLUC_R_SQUARED 0.511, PBLUC_HILL_SLOPE 9.36, PBLUC_R_SQUARED 0.0694, read-out: LUCIFERASE INFECTION ASSAY - IC50): 9.4 µM
COCCNc1nc(-c2ccc(Cl)cc2)nc2ccccc12	> 10.5 µM	> 10.5 µM	
N#Cc1ccnc(N2CCN(C(=O)c3cccc(-n4cccc4)c3)CC2)c1	2.2 µM		IC50 (HEPG2TOX_HILL_SLOPE 1.62, HEPG2TOX_R_SQUARED 0.96, PBLUC_HILL_SLOPE 2.46, PBLUC_R_SQUARED 0.842, read-out: LUCIFERASE INFECTION ASSAY - IC50): 0.901 µM
O=c1c(Cl)c(Cl)cnn1-c1ccccc1	> 13.7 µM		IC50 (HEPG2TOX_HILL_SLOPE 16.5, HEPG2TOX_R_SQUARED 0.386, read-out: LUCIFERASE INFECTION ASSAY - IC50): > 13.7 µM
CC(C)c1cccc(-c2ccc3nnc(-c4ccc(OCCCN(C)C)cc4)n3c2)c1	> 10 µM	> 10 µM	
Cc1ccc(C(CCNCc2cccs2)c2ccco2)cc1 (configuration not stated)	2.72 µM	1.96 µM	
CCCNC(=O)c1nnsc1S(=O)(=O)c1ccc(Cl)cc1	> 9.54 µM		IC50 (HEPG2TOX_HILL_SLOPE 12.7, HEPG2TOX_R_SQUARED 0.778, PBLUC_HILL_SLOPE 22.3, PBLUC_R_SQUARED 0.0764, read-out: LUCIFERASE INFECTION ASSAY - IC50): 9.02 µM
CS/C(Nc1cccc(C(F)(F)F)c1)=C(/C#N)S(=O)(=O)c1ccc(Cl)cc1	> 7.62 µM		IC50 (FFLUC_HILL_SLOPE 30.1, FFLUC_R_SQUARED 0.771, HEPG2TOX_HILL_SLOPE 1.92, HEPG2TOX_R_SQUARED 0.988, PBLUC_HILL_SLOPE 2.74, PBLUC_R_SQUARED 0.0319, read-out: LUCIFERASE INFECTION ASSAY - IC50): 4.34 µM
CCOC(=O)c1sc([S+](C)[O-])c2c1CCc1conc1-2 (configuration not stated)	> 10.6 µM	> 10.6 µM	
CCC(C)(C)c1ccc(Oc2ccc(NC(=O)COC(=O)CNC(=O)c3ccc(C)c(C)c3)cc2)cc1	> 10 µM		IC50 (PBLUC_HILL_SLOPE 2.53, PBLUC_R_SQUARED 0.335, read-out: LUCIFERASE INFECTION ASSAY - IC50): 6.55 µM
Nc1cc(Cl)c(-n2cccc2)cc1Oc1ccc(Cl)cc1	> 10.3 µM		IC50 (FFLUC_HILL_SLOPE 2.28, FFLUC_R_SQUARED 0.58, read-out: LUCIFERASE INFECTION ASSAY - IC50): > 10.3 µM
O=S(=O)(c1cc(C(F)(F)F)cc(C(F)(F)F)c1)N1CCC(C(c2ccccc2)c2ccccc2)CC1	> 6.26 µM		IC50 (FFLUC_HILL_SLOPE 21.5, FFLUC_R_SQUARED 0.833, read-out: LUCIFERASE INFECTION ASSAY - IC50): > 6.26 µM
COc1ccc(NC(=O)c2cc(N(C)Cc3ccccc3)ncn2)cn1	7.26 µM		IC50 (HEPG2TOX_HILL_SLOPE 2.56, HEPG2TOX_R_SQUARED 0.944, PBLUC_HILL_SLOPE 1.8, PBLUC_R_SQUARED 0.498, read-out: LUCIFERASE INFECTION ASSAY - IC50): 2.14 µM
Oc1cccc(Nc2nc(N3CCCCC3)c3ccccc3n2)c1	> 10 µM	> 10 µM	
Cc1ccc2[nH]c(=S)n(-c3cc(Cl)ccc3C)c(=O)c2c1	> 10.4 µM		IC50 (PBLUC_HILL_SLOPE 1.97, PBLUC_R_SQUARED 0.142, read-out: LUCIFERASE INFECTION ASSAY - IC50): 9.2 µM
Cc1cc(C)c(SC(C)C(=O)NC(N)=O)c(C)c1 (configuration not stated)	> 10 µM	> 10 µM	
CC(C)(CNC(=O)c1ccc(F)cc1)SCc1ccc(F)cc1	> 9.84 µM		IC50 (HEPG2TOX_HILL_SLOPE 0.147, HEPG2TOX_R_SQUARED 0.538, PBLUC_HILL_SLOPE 1.03, PBLUC_R_SQUARED 0.662, read-out: LUCIFERASE INFECTION ASSAY - IC50): 3.54 µM
Cc1nc(NC(=O)c2ccc(-n3ccnc3)nc2)sc1SCC#N	> 10 µM	> 10 µM	
COc1cc(C(=O)N2CC=C(c3c[nH]c4ccccc34)CC2)cc(Cl)c1OC	> 10 µM		IC50 (HEPG2TOX_HILL_SLOPE 1.93, HEPG2TOX_R_SQUARED 0.934, PBLUC_HILL_SLOPE 11.8, PBLUC_R_SQUARED 0.218, read-out: LUCIFERASE INFECTION ASSAY - IC50): 8.9 µM
CCOc1cccc(-c2cn3c(-c4ccc5c(ccn5C)c4)cnc3cn2)c1	0.0637 µM		IC50 (HEPG2TOX_HILL_SLOPE 0.658, HEPG2TOX_R_SQUARED 0.817, PBLUC_HILL_SLOPE 2.41, PBLUC_R_SQUARED 0.611, read-out: LUCIFERASE INFECTION ASSAY - IC50): 0.0256 µM
CC(C)CCCC(C)NC(=O)CSCc1cccc(C(=O)O)c1 (configuration not stated)	> 10 µM	> 10 µM	
CNC(=O)c1nn(CC2CCCCC2)c2c1CC(NC1CCCC1)CC2 (configuration not stated)	> 9.2 µM		IC50 (PBLUC_HILL_SLOPE 1.5, PBLUC_R_SQUARED 0.479, read-out: LUCIFERASE INFECTION ASSAY - IC50): 4.38 µM

Structure (SMILES)	IC90	IC50 [1]	further results
Fc1ccc(Nc2n[nH]c(=S)s2)cc1	> 14.5 µM	> 14.5 µM	
CCc1ccc(C(NCC(=O)NC(=O)NC)C(C)C)cc1 (configuration not stated)	> 10 µM	> 10 µM	
Cc1ccc2cc(COC(=O)c3cc4c(s3)CCC(C)C4)c(Cl)nc2c1 (configuration not stated)	> 10 µM	> 10 µM	
O=C(Nc1nc(-c2cccs2)c(C(=O)C(F)(F)F)s1)c1ccc(S(=O)(=O)N2CCCCC2)cc1	> 10 µM	9.17 µM	
O=C(On1c(-c2ccccc2)nc2ccccc2c1=O)c1ccc(F)cc1	> 9.16 µM	> 9.16 µM	
CC(C)Cc1ccc(C(NC(=O)CCc2ccc(S(N)(=O)=O)cc2)c2cccs2)cc1 (configuration not stated)	> 10 µM		IC50 (PBLUC_HILL_SLOPE 2.82, PBLUC_R_SQUARED 0.609, read-out: LUCIFERASE INFECTION ASSAY - IC50): 7.34 µM
COc1ccc(C(C)(O)c2nc(-c3ccccc3C)cs2)cc1 (configuration not stated)	3.04 µM		IC50 (HEPG2TOX_HILL_SLOPE 3.12, HEPG2TOX_R_SQUARED 0.895, PBLUC_HILL_SLOPE 4.56, PBLUC_R_SQUARED 0.531, read-out: LUCIFERASE INFECTION ASSAY - IC50): 1.88 µM
CCNc1cc(C(=O)Nc2ccccc2)ncn1	> 13.6 µM	0.963 µM	
Cc1sc2nc(CSc3ccccc3)nc(N3CCN(CC(=O)NC4CC4)CC3)c2c1C	> 10 µM		IC50 (PBLUC_HILL_SLOPE 2.61, PBLUC_R_SQUARED 0.67, read-out: LUCIFERASE INFECTION ASSAY - IC50): 5.13 µM
Cc1ccc(NC(=O)Nc2ccc3nc(-c4ccsc4)nn3c2)cc1	> 10 µM		IC50 (PBLUC_HILL_SLOPE 7.59, PBLUC_R_SQUARED 0.413, read-out: LUCIFERASE INFECTION ASSAY - IC50): 8.75 µM
CSc1ccc(/C=N/OCC(=O)NCCc2ccc(Cl)cc2Cl)cc1	> 10 µM	> 10 µM	
O=C(c1cnc2nc(N3CCCCC3)sc2c1)c1ccccc1O	> 10 µM	6.09 µM	
CC(C)c1cccc(NS(=O)(=O)c2c[nH]c(C(=O)N3CCCC3)c2)c1	> 10 µM		IC50 (HEPG2TOX_HILL_SLOPE 1.65, HEPG2TOX_R_SQUARED 0.259, read-out: LUCIFERASE INFECTION ASSAY - IC50): > 10 µM
Cn1c(NCC2CC2)nc2cnc(-c3ccc4ccccc4c3)cc21	2.07 µM		IC50 (FFLUC_HILL_SLOPE 1.05, FFLUC_R_SQUARED 0.583, HEPG2TOX_HILL_SLOPE 31.1, HEPG2TOX_R_SQUARED 0.421, PBLUC_HILL_SLOPE 0.605, PBLUC_R_SQUARED 0.735, read-out: LUCIFERASE INFECTION ASSAY - IC50): 0.0548 µM
Cc1ccc(S(=O)(=O)N/N=C/c2c(C)nn(-c3ccccc3)c2C)cc1[N+](=O)[O-]	> 10 µM	> 10 µM	
Cc1cc(C)n(-c2nc(C)c(Br)c(N(C)C)n2)n1	> 10.6 µM	> 10.6 µM	
COC(=O)c1sccc1NC(=O)N(C)Cc1ccc(C)cc1C	> 10 µM		IC50 (PBLUC_HILL_SLOPE 2.81, PBLUC_R_SQUARED 0.305, read-out: LUCIFERASE INFECTION ASSAY - IC50): 6.58 µM
Cc1cc(NCCN(C)C)n2nc(C(F)(F)F)c(-c3ccccc3)c2n1	> 9.08 µM		IC50 (PBLUC_HILL_SLOPE 2.75, PBLUC_R_SQUARED 0.0665, read-out: LUCIFERASE INFECTION ASSAY - IC50): 5.68 µM
Nc1ccc(-c2cn3c(-c4cccc(Cl)c4)cnc3cn2)cn1	> 10.3 µM		IC50 (PBLUC_HILL_SLOPE 1.1, PBLUC_R_SQUARED 0.459, read-out: LUCIFERASE INFECTION ASSAY - IC50): 5.57 µM
CCN(CC)c1ccc2cc(/C=N/NC(=O)C34CC5CC(CC(C5)C3)C4)c(=O)oc2c1	> 10 µM	> 10 µM	
Cc1ccc(C(=O)NC(C)C)n1C	0.447 µM		IC50 (PBLUC_HILL_SLOPE 12.7, PBLUC_R_SQUARED 0.475, read-out: LUCIFERASE INFECTION ASSAY - IC50): 0.376 µM
O=c1nc(Nc2ccc(Cl)cc2)[nH]nc1Cc1ccc(Cl)cc1	5.05 µM		IC50 (PBLUC_HILL_SLOPE 2.36, PBLUC_R_SQUARED 0.336, read-out: LUCIFERASE INFECTION ASSAY - IC50): 1.99 µM
COc1ccc2c(-c3ccccc3)cc(SCc3nnc(C)o3)nc2c1	> 10 µM		IC50 (PBLUC_HILL_SLOPE 2.18, PBLUC_R_SQUARED 0.122, read-out: LUCIFERASE INFECTION ASSAY - IC50): 6.06 µM
